Source: patent US20080269267A1, “KINASE INHIBITORS USEFUL FOR THE TREATMENT OF MYLEOPROLIFIC DISEASES AND OTHER PROLIFERATIVE DISEASES” (Deciphera Pharmaceuticals, LLC, priority 2007, published 2008)

Biological target: T1, c-Kit kinase (SEQ ID NO:9) (Homo sapiens, UniProt P10721)
T1 construct: purchased ProQinase
Assay: c-Kit kinase assay (pyruvate kinase/lactate dehydrogenase coupled)
Details: <2 min preincubation at 22° C., ATP 200 μM; read-out: c-Kit Enzyme Assay, biochemical IC50
Description: C-Kit Kinase (SEQ ID NO:9) Assay
Activity of c-Kit kinase (SEQ ID NO:9) was determined by following the production of ADP from the kinase reaction through coupling with the pyruvate kinase/lactate dehydrogenase system (e.g., Schindler, et al. Science (2000) 289, 1938-1942). In this assay, the oxidation of NADH (thus the decrease at A340 nm) was continuously monitored spectrophometrically. The reaction mixture ([…]) contained c-Kit (cKIT residues T544-V976, from ProQinase, 5.4 nM), polyE4Y (1 mg/ml), MgCl2 (10 mM), pyruvate kinase (4 units), lactate dehydrogenase (0.7 units), phosphoenol pyruvate (1 mM), and NADH (0.28 mM) in 90 mM Tris buffer containing 0.2% octyl-glucoside and 1% DMSO, pH 7.5. Test compounds were incubated with […] (SEQ ID NO:9) and other reaction reagents at 22° C. for <2 min before ATP (200 μM) was added to start the reaction. The absorption at 340 nm was monitored continuously for 0.5 hours at 30° C. on Polarstar Optima plate reader (BMG). The reaction rate was calculated using the 0 to 0.5 h time frame. Percent inhibition was obtained by comparison of reaction rate with that of a control (i.e. with no test compound). IC50 values were calculated from a series of percent inhibition values determined at a range of inhibitor concentrations using software routines as implemented in the GraphPad Prism software package.

T1 sequence (P10721 with tags, fused parts or gaps): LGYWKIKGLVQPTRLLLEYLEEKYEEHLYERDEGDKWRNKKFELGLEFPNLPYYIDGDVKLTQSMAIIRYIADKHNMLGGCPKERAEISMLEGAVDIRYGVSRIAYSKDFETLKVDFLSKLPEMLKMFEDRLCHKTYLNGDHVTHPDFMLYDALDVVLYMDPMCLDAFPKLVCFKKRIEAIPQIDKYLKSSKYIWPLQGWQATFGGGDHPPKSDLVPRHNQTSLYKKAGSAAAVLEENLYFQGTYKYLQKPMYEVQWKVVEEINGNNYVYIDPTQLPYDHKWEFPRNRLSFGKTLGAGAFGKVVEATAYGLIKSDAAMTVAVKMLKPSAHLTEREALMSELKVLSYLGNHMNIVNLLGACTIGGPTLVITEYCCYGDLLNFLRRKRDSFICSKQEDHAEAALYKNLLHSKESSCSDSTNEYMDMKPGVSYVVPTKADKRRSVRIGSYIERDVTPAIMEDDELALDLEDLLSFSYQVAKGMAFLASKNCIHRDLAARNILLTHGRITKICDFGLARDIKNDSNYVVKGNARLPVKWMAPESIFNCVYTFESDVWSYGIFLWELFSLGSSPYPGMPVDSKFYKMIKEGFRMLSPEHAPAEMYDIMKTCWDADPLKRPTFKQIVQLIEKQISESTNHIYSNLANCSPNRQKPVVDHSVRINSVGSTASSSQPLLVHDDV

IC50 | Structure (SMILES)
< 100 nM | CC(C)c1cc(NC(=O)Nc2ccc(Oc3ccnc(-c4cnn(C)c4)c3)cc2F)n(-c2cccc(C#N)c2)n1 [Example 2, 1-(1-(3-cyanophenyl)-3-isopropyl-1H-pyrazol-5-yl)-3-(2-fluoro-4-(2-(1-methyl-1H-pyrazol-4-yl)pyridin-4-yloxy)phenyl)urea]
< 100 nM | CC(C)c1cc(NC(=O)Nc2ccc(Oc3ccnc(-c4cnn(C)c4)c3)cc2F)n(-c2ccc(F)c(C#N)c2)n1 [Example 5, 1-(1-(3-cyano-4-fluorophenyl)-3-isopropyl-1H-pyrazol-5-yl)-3-(2-fluoro-4-(2-(1-methyl-1H-pyrazol-4-yl)pyridin-4-yloxy)phenyl)urea]
< 100 nM | CC(C)c1cc(NC(=O)Nc2ccc(Oc3ccnc(-c4cnn(C)c4)c3)c(F)c2F)n(-c2cccc(C#N)c2)n1 [Example 13, 1-(1-(3-cyanophenyl)-3-isopropyl-1H-pyrazol-5-yl)-3-(2,3-difluoro-4-(2-(1-methyl-1H-pyrazol-4-yl)pyridin-4-yloxy)phenyl)urea]

Further lines, the compound ahead of its results:

Structure (SMILES) | IC50
CCc1cc(NC(=O)Nc2ccc(Oc3ccnc(-c4cnn(C)c4)c3)cc2F)n(-c2cccc(C#N)c2)n1 [Example 9, 1-(1-(3-cyanophenyl)-3-ethyl-1H-pyrazol-5-yl)-3-(2-fluoro-4-(2-(1-methyl-1H-pyrazol-4-yl)pyridin-4-yloxy)phenyl)urea] | < 100 nM
Cc1c(Oc2ccnc(-c3cnn(C)c3)c2)ccc(NC(=O)Nc2cc(C(C)C)nn2-c2cccc(C#N)c2)c1F [Example 12, 1-(1-(3-cyanophenyl)-3-isopropyl-1H-pyrazol-5-yl)-3-(2-fluoro-3-methyl-4-(2-(1-methyl-1H-pyrazol-4-yl)pyridin-4-yloxy)phenyl)urea] | < 100 nM
CCc1cc(NC(=O)Nc2ccc(Oc3ccnc(-c4cnn(C(C)C)c4)c3)cc2F)n(-c2cccc(C#N)c2)n1 [Example 17, 1-(1-(3-cyanophenyl)-3-ethyl-1H-pyrazol-5-yl)-3-(2-fluoro-4-(2-(1-isopropyl-1H-pyrazol-4-yl)pyridin-4-yloxy)phenyl)urea] | < 100 nM
CCc1cc(NC(=O)Nc2ccc(Oc3ccnc(-c4cnn(C)c4)c3)cc2F)n(-c2ccc(CO)cc2)n1 [Example 19, 1-(3-ethyl-1-(4-(hydroxymethyl)phenyl)-1H-pyrazol-5-yl)-3-(2-fluoro-4-(2-(1-methyl-1H-pyrazol-4-yl)pyridin-4-yloxy)phenyl)urea] | < 100 nM
CC(C)n1cc(NC(=O)Nc2ccc(Oc3ccnc(-c4cnn(C)c4)c3)cc2F)c(-c2ccccc2)n1 [Example 21, 1-(2-fluoro-4-(2-(1-methyl-1H-pyrazol-4-yl)pyridin-4-yloxy)phenyl)-3-(1-isopropyl-3-phenyl-1H-pyrazol-4-yl)urea] | < 100 nM
